Patent US20220016277A1, “MACROCYCLIC COMPLEXES OF RADIONUCLIDES AND THEIR USE IN RADIOTHERAPY OF CANCER” (Cornell University, priority 2018, published 2022)

Experiment: Organ distribution of ^225Ac complexes following intravenous injection in mice
Format: in vivo, C57BL/6 mice
Procedure: In Vivo Biodistribution of ^225Ac Complexes of Macropa and DOTA. All experiments were approved by the Institutional Animal Care Committee (IACC) of the University of British Columbia and were performed in accordance with the Canadian Council on Animal Care Guidelines. A total of 9 female C57BL/6 mice (6-8 weeks old, 20-25 g) were used for the biodistribution study of each radiometal complex, n=3 for each time point.
Macropa (100 μL of a 1 mg/mL solution in NH4OAc) was diluted with 387 μL of NH4OAc (1 M, pH 7), and an aliquot (203 μL) of ^225Ac(NO3)3 (˜157 kBq) was then added; the pH of this solution was adjusted to 6.5-7 by the addition of 1 M NaOH (210 μL, trace metal grade). After 5 min at ambient temperature, the reaction solution was analyzed by TLC (0.4 M pH 4 sodium citrate as the eluent), which confirmed >95% radiochemical yield. The reaction was allowed to proceed overnight, and the radiochemical yield was again confirmed to be >95% the following morning. At this time, mice were anesthetized by 2% isoflurane, and approximately 100 μL (10-15 kBq) of the [^225Ac(macropa)]^+ complex were injected into the tail vein of each mouse. After injection, mice were allowed to recover and roam freely in their cages, and were euthanized by CO2 inhalation at 15 min, 1 h, or 5 h (n=3 at each time point) post-injection. Blood was collected by cardiac puncture and placed into an appropriate test tube for scintillation counting. Tissues collected included heart, liver, kidneys, lungs, small intestine, large intestine, brain, bladder, spleen, stomach, pancreas, bone, thyroid, tail, urine, and feces. Tissues were weighed and then counted with a calibrated gamma counter (Packard, Cobra II model 5002) using three energy windows: 60-120 keV (window A), 180-260 keV (window B), and 400-480 keV (window C). Counting was performed both immediately after sacrifice and after 7 days; counts were decay corrected from the time of injection and then converted to the percentage of injected dose (% ID) per gram of tissue (% ID/g). […]
The biodistribution studies of [^225Ac(DOTA)]^− and ^225Ac(NO3)3 were carried out as described above for [^225Ac(macropa)]^+, with the following modifications. [^225Ac(DOTA)^− was prepared by adding ^225Ac(NO3)3 (338 μL, 1.1 MBq) to a solution of DOTA (100 μg, 20 mg/mL in H2O) in NH4OAc (467 μL, 0.15 M, pH 7). The pH of the solution was adjusted to 7 using NH4OAc (150 μL, 1 M, pH 7) and the solution was heated at 85° C. for 45 min. RCY >99% was confirmed by TLC as described above. [^225Ac(DOTA)]^− was diluted with saline to a final concentration of 0.05 MBq/100 μL, and 100 μL were injected into each mouse. ^225Ac(NO3)3 (˜58 μL, 0.4 MBq) was diluted and injected in the same manner as [^225Ac(DOTA)]^−. One mouse that was to be euthanized at the 5 h time point in the [^225Ac(DOTA)]^− study died shortly after injection. In the same manner, one mouse that was to be euthanized at the 1 h time point in the ^225Ac(NO3)3 study died.
The in vivo stability [^225Ac(macropa)]^+ was examined by comparing its biodistribution to those of ^225Ac(NO3)3 and [^225Ac(DOTA)]^−. C57BL/6 mice were injected via tail vein with 10-50 kBq of each radiometal complex and were sacrificed after 15 min, 1 h, or 5 h. The amount of ^225Ac retained in each organ was quantified by gamma counting and reported as the percent of injected dose per gram of tissue (% ID/g). The results of these studies are compiled in Tables 1-3. Inadequate stability of an ^225Ac complex leading to the loss of radioisotope in vivo is manifested by the accumulation of ^225Ac in the liver, spleen, and bone of mice.^[11,12,32] […] The biodistribution profile of [^225Ac(macropa)]^+ (FIG. 3B) differs markedly from that of ^225Ac(NO3)3. […] Its biodistribution profile was similar to that of [^225Ac(DOTA)]^− (FIG. 3C), which has been previously shown to retain ^225Ac^3+ in vivo.^[7]

[1] = 15 min post i.v. injection, energy window A (60-120 keV)
[2] = 15 min post i.v. injection, energy window B (180-260 keV)
[3] = 15 min post i.v. injection, energy window C (400-480 keV)
[4] = 1 h post i.v. injection, energy window A (60-120 keV)
[5] = 1 h post i.v. injection, energy window B (180-260 keV)
[6] = 1 h post i.v. injection, energy window C (400-480 keV)
[7] = 5 h post i.v. injection, energy window A (60-120 keV)
[8] = 5 h post i.v. injection, energy window B (180-260 keV)
[9] = 5 h post i.v. injection, energy window C (400-480 keV)
[10] = C57BL/6 mice, i.v., 15 min to 5 h

O=[N+]([O-])[O-].O=[N+]([O-])[O-].O=[N+]([O-])[O-].[225Ac] [^225Ac(NO3)3]
Organ distribution: bladder [1]: 1.477 % ID/g
Organ distribution: blood [1]: 40.966 % ID/g
Organ distribution: bone (femur + joint) [1]: 2.764 % ID/g
Organ distribution: brain [1]: 0.614 % ID/g
Organ distribution: feces [1]: 0.240 % ID/g
Organ distribution: heart [1]: 8.557 % ID/g
Organ distribution: kidneys [1]: 10.468 % ID/g
Organ distribution: large intestines [1]: 1.116 % ID/g
Organ distribution: liver [1]: 22.899 % ID/g
Organ distribution: lungs [1]: 12.757 % ID/g
Organ distribution: pancreas [1]: 2.366 % ID/g
Organ distribution: small intestines [1]: 2.002 % ID/g
Organ distribution: spleen [1]: 22.733 % ID/g
Organ distribution: stomach [1]: 2.348 % ID/g
Organ distribution: tail [1]: 7.459 % ID/g
Organ distribution: thyroids [1]: 4.391 % ID/g
Organ distribution: urine [1]: 5.527 % ID/g
Organ distribution: bladder [2]: 1.6996 % ID/g
Organ distribution: blood [2]: 41.5628 % ID/g
Organ distribution: bone (femur + joint) [2]: 2.7487 % ID/g
Organ distribution: brain [2]: 0.6536 % ID/g
Organ distribution: feces [2]: 0.3857 % ID/g
Organ distribution: heart [2]: 8.3605 % ID/g
Organ distribution: kidneys [2]: 9.6424 % ID/g
Organ distribution: large intestines [2]: 1.1570 % ID/g
Organ distribution: liver [2]: 23.6091 % ID/g
Organ distribution: lungs [2]: 12.9714 % ID/g
Organ distribution: pancreas [2]: 2.2821 % ID/g
Organ distribution: small intestines [2]: 1.9641 % ID/g
Organ distribution: spleen [2]: 24.0497 % ID/g
Organ distribution: stomach [2]: 2.3704 % ID/g
Organ distribution: tail [2]: 8.0722 % ID/g
Organ distribution: thyroids [2]: 9.6295 % ID/g
Organ distribution: urine [2]: 5.0951 % ID/g
Organ distribution: bladder [3]: 1.9351 % ID/g
Organ distribution: blood [3]: 42.3521 % ID/g
Organ distribution: bone (femur + joint) [3]: 3.4560 % ID/g
Organ distribution: brain [3]: 0.6755 % ID/g
Organ distribution: feces [3]: 0.4896 % ID/g
Organ distribution: heart [3]: 9.0992 % ID/g
Organ distribution: kidneys [3]: 14.2266 % ID/g
Organ distribution: large intestines [3]: 1.5716 % ID/g
Organ distribution: liver [3]: 24.1147 % ID/g
Organ distribution: lungs [3]: 14.4797 % ID/g
Organ distribution: pancreas [3]: 2.4405 % ID/g
Organ distribution: small intestines [3]: 2.0956 % ID/g
Organ distribution: spleen [3]: 25.4263 % ID/g
Organ distribution: stomach [3]: 2.4232 % ID/g
Organ distribution: tail [3]: 9.1381 % ID/g
Organ distribution: thyroids [3]: 3.5934 % ID/g
Organ distribution: urine [3]: 19.8282 % ID/g
Organ distribution: bladder [4]: 0.9047 % ID/g
Organ distribution: blood [4]: 20.8234 % ID/g
Organ distribution: bone (femur + joint) [4]: 2.4707 % ID/g
Organ distribution: brain [4]: 0.2995 % ID/g
Organ distribution: feces [4]: 0.2189 % ID/g
Organ distribution: heart [4]: 4.4261 % ID/g
Organ distribution: kidneys [4]: 7.2170 % ID/g
Organ distribution: large intestines [4]: 0.6035 % ID/g
Organ distribution: liver [4]: 39.8269 % ID/g
Organ distribution: lungs [4]: 8.2412 % ID/g
Organ distribution: pancreas [4]: 2.1771 % ID/g
Organ distribution: small intestines [4]: 1.5594 % ID/g
Organ distribution: spleen [4]: 34.8831 % ID/g
Organ distribution: stomach [4]: 1.6211 % ID/g
Organ distribution: tail [4]: 5.7939 % ID/g
Organ distribution: thyroids [4]: 2.5988 % ID/g
Organ distribution: urine [4]: 4.5194 % ID/g
Organ distribution: bladder [5]: 0.8092 % ID/g
Organ distribution: blood [5]: 21.4460 % ID/g
Organ distribution: bone (femur + joint) [5]: 2.7705 % ID/g
Organ distribution: brain [5]: 0.3247 % ID/g
Organ distribution: feces [5]: 0.3300 % ID/g
Organ distribution: heart [5]: 4.5832 % ID/g
Organ distribution: kidneys [5]: 6.8770 % ID/g
Organ distribution: large intestines [5]: 0.5629 % ID/g
Organ distribution: liver [5]: 41.0995 % ID/g
Organ distribution: lungs [5]: 8.4426 % ID/g
Organ distribution: pancreas [5]: 2.1579 % ID/g
Organ distribution: small intestines [5]: 1.5192 % ID/g
Organ distribution: spleen [5]: 37.1540 % ID/g
Organ distribution: stomach [5]: 1.5867 % ID/g
Organ distribution: tail [5]: 6.4201 % ID/g
Organ distribution: thyroids [5]: 5.7426 % ID/g
Organ distribution: urine [5]: 7.0564 % ID/g
Organ distribution: bladder [6]: 2.2929 % ID/g
Organ distribution: blood [6]: 11.3736 % ID/g
Organ distribution: bone (femur + joint) [6]: 2.7213 % ID/g
Organ distribution: brain [6]: 0.4402 % ID/g
Organ distribution: feces [6]: 0.1122 % ID/g
Organ distribution: heart [6]: 3.3464 % ID/g
Organ distribution: kidneys [6]: 6.2070 % ID/g
Organ distribution: large intestines [6]: 0.4366 % ID/g
Organ distribution: liver [6]: 23.6180 % ID/g
Organ distribution: lungs [6]: 5.2078 % ID/g
Organ distribution: pancreas [6]: 1.8508 % ID/g
Organ distribution: small intestines [6]: 3.5548 % ID/g
Organ distribution: spleen [6]: 38.1082 % ID/g
Organ distribution: stomach [6]: 2.3350 % ID/g
Organ distribution: tail [6]: 9.0877 % ID/g
Organ distribution: thyroids [6]: 0.0000 % ID/g
Organ distribution: urine [6]: 104.9103 % ID/g
Organ distribution: bladder [7]: 1.4947 % ID/g
Organ distribution: blood [7]: 1.9886 % ID/g
Organ distribution: bone (femur + joint) [7]: 3.5460 % ID/g
Organ distribution: brain [7]: 0.0452 % ID/g
Organ distribution: feces [7]: 0.9445 % ID/g
Organ distribution: heart [7]: 1.3450 % ID/g
Organ distribution: kidneys [7]: 4.6910 % ID/g
Organ distribution: large intestines [7]: 0.6479 % ID/g
Organ distribution: liver [7]: 59.8156 % ID/g
Organ distribution: lungs [7]: 4.1871 % ID/g
Organ distribution: pancreas [7]: 0.4874 % ID/g
Organ distribution: small intestines [7]: 1.3704 % ID/g
Organ distribution: spleen [7]: 62.9614 % ID/g
Organ distribution: stomach [7]: 2.6131 % ID/g
Organ distribution: tail [7]: 23.4055 % ID/g
Organ distribution: thyroids [7]: −2.7052 % ID/g
Organ distribution: urine [7]: 4.8267 % ID/g
Organ distribution: bladder [8]: 1.5234 % ID/g
Organ distribution: blood [8]: 2.0018 % ID/g
Organ distribution: bone (femur + joint) [8]: 3.8533 % ID/g
Organ distribution: brain [8]: 0.0290 % ID/g
Organ distribution: feces [8]: 1.0201 % ID/g
Organ distribution: heart [8]: 1.3948 % ID/g
Organ distribution: kidneys [8]: 3.8752 % ID/g
Organ distribution: large intestines [8]: 0.6744 % ID/g
Organ distribution: liver [8]: 62.0765 % ID/g
Organ distribution: lungs [8]: 4.3379 % ID/g
Organ distribution: pancreas [8]: 0.4455 % ID/g
Organ distribution: small intestines [8]: 1.2201 % ID/g
Organ distribution: spleen [8]: 65.9117 % ID/g
Organ distribution: stomach [8]: 2.5322 % ID/g
Organ distribution: tail [8]: 25.4744 % ID/g
Organ distribution: thyroids [8]: −4.6044 % ID/g
Organ distribution: urine [8]: 3.3142 % ID/g
Organ distribution: bladder [9]: 3.4975 % ID/g
Organ distribution: blood [9]: 2.1769 % ID/g
Organ distribution: bone (femur + joint) [9]: 3.5851 % ID/g
Organ distribution: brain [9]: 0.0430 % ID/g
Organ distribution: feces [9]: 0.8535 % ID/g
Organ distribution: heart [9]: 1.2018 % ID/g
Organ distribution: kidneys [9]: 4.2061 % ID/g
Organ distribution: large intestines [9]: 1.0259 % ID/g
Organ distribution: liver [9]: 54.1727 % ID/g
Organ distribution: lungs [9]: 5.4923 % ID/g
Organ distribution: pancreas [9]: 0.4643 % ID/g
Organ distribution: small intestines [9]: 1.2922 % ID/g
Organ distribution: spleen [9]: 62.2357 % ID/g
Organ distribution: stomach [9]: 2.0358 % ID/g
Organ distribution: tail [9]: 28.4443 % ID/g
Organ distribution: thyroids [9]: −0.4455 % ID/g
Organ distribution: urine [9]: 5.8548 % ID/g
blood clearance and excretion (in words) [10]: slow blood clearance and excretion
organ accumulation (in words) [10]: large accumulation in the liver and spleen
